In patent US7846473B2, “Irinotecan preparation” (Terumo Kabushiki Kaisha, priority 2004, dated 2010):

Legend:
Assay type in all cases: in vivo
[1] = test system: Mouse fibrosarcoma (Meth A); assay: Antitumor effect due to administration of a drug once or twice, Meth A; conditions: Meth A in BALB/c mouse; for Inhibition rate (%) / Tumor weight (g, mean ± S.D.): 21 days from transplantation
Method: Mouse fibrosarcoma (Meth A), 2.5×10^5 cells/mouse were transplanted subcutaneously in an inguinal region of a mouse (BALB/c, female, 7 weeks old, CLEA Japan, Inc.). […] Mice without injection of any agent were employed as a control group.
The tumors were also removed after 21 days from the transplantation and weight of the tumors was measured, to thereby calculate tumor proliferation inhibition rate, I.R. (%) by the formula as shown in Test Example 6.

[2] = Retentivity in blood; conditions: female, plasma, iv; BALB/c mouse, 10 mg/kg i.v. tail, elapsed time 1 hr; read-out: Concentration in plasma of irinotecan hydrochloride
[3] = test system: Human colon cancer cells (HT-29); assay: Antitumor effect, human colon cancer HT-29 transplanted in mouse; conditions: HT-29 in BALB/c nude mouse; for Inhibition rate (%) / Tumor weight (g, mean ± S.D.): 21 days after injection
Method: Human colon cancer cells (HT-29) with 2 to 3 mm square were transplanted subcutaneously in an inguinal region of a mouse (BALB/c nude, male, 6 weeks old, CLEA Japan, Inc.) with a needle for transplantation. […] Mice without injection of either agent were employed as a control group.
The estimated volume of tumors and a body weight of the mouse were calculated at 4, 8, 12, 17, 21 days after a first injection. The tumors were also removed 21 days after the injection and the weight of the tumors were measured, to thereby calculate a tumor proliferation inhibition rate, I.R. (%) by the formula as shown in Test Example 6.

[4] = test system: human colon cancer cells (HCT116); assay: Antitumor effect, human colon cancer HCT116 implanted in mouse; conditions: HCT116 in BALB/c nude mouse; for Inhibition rate (%) / Tumor weight (g, mean ± S.D.): 21 days after injection
Method: (§1) 2×10^6 cells/mouse of human colon cancer cells (HCT116) were implanted subcutaneously in left inguinal region of the mouse (BALB/c nude, ♂, 6 weeks old, Charles River Japan, Inc.). After implanting tumors, a presumptive tumor volume was calculated by ½·ab^2 (a represents a longitudinal diameter of a tumor and b represents a short axis diameter thereof) achieved to about 90 mm^3 in a day (Day 0). […] There were mice without injection of either agent as a control group.
A presumptive tumor volume and a body weight of a mouse were measured after 5, 8, 12, 16, and 21 days from the injection. Extracting tumors 21 days after the injection and measuring a weight thereof, further, an inhibition rate of tumor growth I.R. (%) was calculated by the formula as shown in Test Example 6.

[5] = Pharmacokinetics in cynomolgus monkey
Method: Providing 50 μL of blood plasma with 550 μL of an internal standard solution B (a methanol solution of internal standard substances) and employing centrifugal force, the supernatant was diluted with methanol 100-fold as a sample for the total CPT-11 concentration measurement. Meanwhile, Providing 50 μL of each blood plasma with 200 μL of an internal standard solution A (0.147 mol/L H3PO4 solution of internal standard substances), 200 μL thereof was subjected to a centrifugal separation (100,000×g, for 30 min, 10° C.). 100 μL in upper layer were separated and were employed solid-phase extraction, to obtain the eluent as samples for free CPT-11 (i.e., CPT-11 released from liposome, hereinafter referred as “liposome-released CPT-11”) concentration measurement, SN-38 concentration measurement, and SN-38G (SN-38 10-O-gluclonide) concentration measurement. The samples obtained were measured each concentration thereof with LC/MS/MS. FIGS. 8 to 11 show the results.

[6] = test system: human prostatic cancer cells (PC-3); assay: Antitumor effect, human prostatic cancer PC-3 implanted in mouse; conditions: PC-3 in BALB/c nude mouse; for Inhibition rate (%) / Tumor weight (g, mean ± S.D.): Day 22
Text: as §1, with “2.5×10^6” for “2×10^6”, “prostatic” for “colon”, “(PC-3)” for “(HCT116)”, “male,” for “♂,”, “volume” for “volume was”, “thereof).” for “thereof) achieved to about 90 mm^3 in a day (Day 0).”
A presumptive tumor volume and a body weight of a mouse were measured at Days 1, 5, 9, 12, 16, and 22.
After extracting tumors and measuring a weight thereof at Day 22, further, an inhibition rate of tumor growth I.R. (%) was calculated by the following formula. I.R. %=(1−average tumor weight in a treatment group/average tumor weight in a control group)×100

[7] = test system: neutrophils and lymphocytes; assay: Hemotoxicity in rat; conditions: i.v. tail vein
Method: Collecting blood of 0.4 mL from a cervical vein of the rat before and after injection; and after 2, 4, 6, 13, 20, and 27 days (for 4 weeks); the number of neutrophils and lymphocytes was measured with automated hematology analyzer (Sysmex XT-2000i, Sysmex). FIGS. 12 and 13 show the results.

[8] = test system: Mouse fibrosarcoma (Meth A); assay: Antitumor effect due to administration of a drug three times, Meth A; conditions: Meth A in BALB/c mouse; for Inhibition rate (%) / Tumor weight (g, mean ± S.D.): 21 days from transplantation
Method: Mouse fibrosarcoma (Meth A), 2.5×10^5 cells/mouse were transplanted subcutaneously in an inguinal region of a mouse (BALB/c, female, 7 weeks old, CLEA Japan, Inc.). […] Mice without injection of either agent were employed as a control group.
The tumors were also removed after 21 days from the transplantation and weight of the tumors was measured, to thereby calculate each tumor proliferation inhibition rate, I.R. (%) by the formula as shown in Test Example 6.

[9] = test system: Human lung cancer cells (QG56); assay: Antitumor effect, human lung cancer QG56 transplanted in mouse; conditions: QG56 in BALB/c nude mouse; for Inhibition rate (%) / Tumor weight (g, mean ± S.D.): 21 days after first injection
Method: Human lung cancer cells (QG56) with 2 to 3 mm square were transplanted subcutaneously in an inguinal region of a mouse (BALB/c nude, male, 6 weeks old, CLEA Japan, Inc.) with a needle for transplantation. […] Mice without injection of either agent were employed as a control group.
The estimated volume of each tumor and a body weight of the mouse were calculated 4, 8, 12, 16, and 21 days after the first injection. The tumors were also removed 21 days after the first injection and a weight of the tumors was measured, to thereby calculate each tumor proliferation inhibition rate, I.R. (%) by the formula as shown in Test Example 6. The results are shown in Table 16, FIG. 28, and FIG. 29.

[10] = Pharmacokinetics due to single administration in Meth A tumor-bearing mouse (plasma and tumor); conditions: Meth A-bearing BALB/c mouse, 10 mg/kg i.v.
[11] = 12.5 mg/kg i.v., treatment on day 7
[12] = 12.5 mg/kg i.v., treatment on days 7, 11
[13] = 25 mg/kg i.v., treatment on day 7
[14] = 25 mg/kg i.v., treatment on day 11
[15] = 25 mg/kg i.v., treatment on days 7, 11
[16] = 50 mg/kg i.v., treatment on day 7
[17] = 50 mg/kg i.v., treatment on day 11
[18] = 50 mg/kg i.v., treatment on days 7, 11
[19] = 50 mg/kg i.v., treatment on days 7, 9, 11
[20] = 50 mg/kg i.v., treatment on days 7, 11, 15
[21] = 100 mg/kg i.v., treatment on days 7, 9, 11
[22] = 100 mg/kg i.v., treatment on days 7, 11, 15

## CCc1c2c(nc3ccc(OC(=O)N4CCC(N5CCCCC5)CC4)cc13)-c1cc3c(c(=O)n1C2)COC(=O)[C@]3(O)CC [(+)-(4S)-4,11-diethyl-4-hydroxy-9-[(4-piperidino-piperidino)carbonyloxy]-1H-pyrano[3′,4′:6,7]indolizino[1,2-b]quinolin-3,14(4H,12H)-dione]
[1]; [11]
  Inhibition rate (%): 20.2%
  Tumor weight (g, mean ± S.D.): 2.82 ± 0.51 g
[1]; [12]
  Inhibition rate (%): 29.4%
  Tumor weight (g, mean ± S.D.): 2.49 ± 0.29 g
[1]; [13]
  Inhibition rate (%): 26.0%
  Tumor weight (g, mean ± S.D.): 2.61 ± 0.40 g
[1]; [14]
  Inhibition rate (%): 32.1%
  Tumor weight (g, mean ± S.D.): 2.40 ± 0.74 g
[1]; [15]
  Inhibition rate (%): 34.1%
  Tumor weight (g, mean ± S.D.): 2.33 ± 0.62 g
[1]; [16]
  Inhibition rate (%): 33.7%
  Tumor weight (g, mean ± S.D.): 2.34 ± 0.17 g
[1]; [17]
  Inhibition rate (%): 44.0%
  Tumor weight (g, mean ± S.D.): 1.98 ± 0.45 g
[1]; [18]
  Inhibition rate (%): 41.2%
  Tumor weight (g, mean ± S.D.): 2.08 ± 0.43 g
[1]; 12.5-50 mg/kg i.v. once or twice
  effect on body weight of the mouse: didn't affect the body weight of the mouse
[1]; one or two administrations
  tumor proliferation compared to the control group: significant tumor proliferation inhibitory effect compared to the control group unless a part of the physiological saline solutions of irinotecan hydrochloride
[2]
  concentration at 1 h: 390 ng/mL
[3]
  tumor proliferation compared with the control group: strong tumor proliferation inhibitory effect
[3]; 25 mg/kg i.v. days 1, 5, 9
  Inhibition rate (%): 38.2%
  Tumor weight (g, mean ± S.D.): 0.36 ± 0.41 g
[3]; 50 mg/kg i.v. days 1, 5, 9
  Inhibition rate (%): 24.9%
  Tumor weight (g, mean ± S.D.): 0.44 ± 0.36 g
[3]; 100 mg/kg i.v. days 1, 5, 9
  Inhibition rate (%): 44.0%
  Tumor weight (g, mean ± S.D.): 0.33 ± 0.32 g
[3]; 25-100 mg/kg i.v. days 1, 5, 9
  effect on body weight of the mouse: didn't affect the body weight of the mouse
[4]
  tumor growth compared to the control group: significant suppressive effect of tumor growth
[4]; 18.75 mg/kg i.v. Days 1, 5, 9
  Inhibition rate (%): 39.0%
  Tumor weight (g, mean ± S.D.): 0.76 ± 0.06 g
[4]; 37.5 mg/kg i.v. Days 1, 5, 9
  Inhibition rate (%): 43.4%
  Tumor weight (g, mean ± S.D.): 0.71 ± 0.08 g
[4]; 75 mg/kg i.v. Days 1, 5, 9
  Inhibition rate (%): 57.4%
  Tumor weight (g, mean ± S.D.): 0.53 ± 0.14 g
[4]; 18.75-75 mg/kg i.v. Days 1, 5, 9
  influence on body weight of the mouse: did not influence the body weight of the mouse
[5]; 10 mg/kg i.v.
  time of highest SN-38 concentration in blood plasma: immediately after injection
  time of highest free (liposome-released) CPT-11 concentration in blood plasma: immediately after injection
[5]; male, plasma, iv, 10 mg/kg i.v. over 4 min, until 1 hour, lower limit of quantification, read-out: total CPT-11 concentration in blood plasma
  concentration at 1 h: < 1000 ng/mL
[6]
  tumor growth compared to the control group: significant suppressive effect of tumor growth
[6]; 25 mg/kg i.v. days 1, 5, 9
  Inhibition rate (%): 49.0%
  Tumor weight (g, mean ± S.D.): 0.64 ± 0.25 g
[6]; 50 mg/kg i.v. days 1, 5, 9
  Inhibition rate (%): 48.0%
  Tumor weight (g, mean ± S.D.): 0.66 ± 0.13 g
[6]; 100 mg/kg i.v. days 1, 5, 9
  Inhibition rate (%): 62.3%
  Tumor weight (g, mean ± S.D.): 0.48 ± 0.20 g
[6]; 25-100 mg/kg i.v. days 1, 5, 9
  influence on body weight of the mouse: did not influence the body weight of the mouse
[7]
  number of lymphocytes: on a decline immediately after injection albeit only slightly
[8]; [19]
  Inhibition rate (%): 26.9%
  Tumor weight (g, mean ± S.D.): 1.47 ± 0.18 g
[8]; [20]
  Inhibition rate (%): 1.0%
  Tumor weight (g, mean ± S.D.): 1.99 ± 0.47 g
[8]; [21]
  Inhibition rate (%): 86.0%
  Tumor weight (g, mean ± S.D.): 0.28 ± 0.42 g
[8]; [22]
  Inhibition rate (%): 37.4%
  Tumor weight (g, mean ± S.D.): 1.26 ± 0.49 g
[8]; 50-100 mg/kg i.v. three times
  effect on body weight of the mouse: didn't affect the body weight of the mouse
[8]; three administrations
  tumor proliferation compared to the control group: significant tumor proliferation inhibitory effect
[9]
  tumor proliferation compared to the control group: significant tumor proliferation inhibitory effect
[9]; 25 mg/kg i.v. days 1, 5, 9
  Inhibition rate (%): 35.5%
  Tumor weight (g, mean ± S.D.): 1.88 ± 0.43 g
[9]; 50 mg/kg i.v. days 1, 5, 9
  Inhibition rate (%): 48.7%
  Tumor weight (g, mean ± S.D.): 1.49 ± 0.51 g
[9]; 100 mg/kg i.v. days 1, 5, 9
  Inhibition rate (%): 67.2%
  Tumor weight (g, mean ± S.D.): 0.95 ± 0.18 g
[9]; 25-100 mg/kg i.v. days 1, 5, 9
  effect on body weight of the mouse: didn't affect the body weight of the mouse
[10]
  time of maximum concentration of irinotecan hydrochloride in the tumor tissue: 0.5 h
